Assay results published in patent US20120282245A1, “BIOMARKERS AND ASSAYS FOR THE TREATMENT OF CANCER” (BIOGEN IDEC MA INC., priority 2006, published 2012).

Columns and labels:
[1] = test system: canonical NFκB1 pathway; test: Western blot for phosphorylated IκBα and RelA (canonical NFκB1 activation); format: cell-based; conditions: DLD-1 and WiDr cells, TNFα 20 ng/ml
Experimental: (§1) DLD-1 and WiDr adenocarcinoma cell lines were obtained from ATCC (Manassas, Va.), and cultured in MEM Earle's medium supplemented with 10% FBS. Antibodies against LTβR (N-15), TRAF3 (H-20 and H-122), TRAF2 (H-249), and NFκB2 (C-5) were obtained from Santa Cruz Biotechnology (Santa Cruz, Calif.). Antibodies against phosphorylated IκBα (5A5), phosphorylated RelA, and NIK were purchased from Cell Signaling Technologies (Beverly, Mass.).
LTβR was activated using 100 ng/ml of a humanized bi-specific, activating antibody (BS-1) developed at Biogen Idec, Inc. TNFα was used at a concentration of 20 ng/ml. During stimulation, cells were kept in a 37° C. incubator for indicated times.
(§2) Cells were treated for 10 minutes at 37° C. with media or activating antibody (BS-1) and washed twice in ice-cold PBS with protease and phosphatase inhibitors, followed by lysis by scraping in ice-cold lysis buffer [50 mM PIPES pH 6.8, 100 mM KCl, 2 mM MgCl2, 1 mM EGTA, 0.2% NP-40, and 10% Glycerol, supplemented with Complete EDTA-free protease inhibitor cocktail (Roche, Indianapolis, Ind.), 10 mM Sodium Fluoride, and 100 μM Sodium Orthovanadate]. […] Blots were developed using SuperSignal chemiluminescent detection substrates (Pierce), and detected on Biomax X-ray films (Kodak, Rochester, N.Y.) and/or directly on a Kodak ImageStation 2000R luminescence detector.

[2] = test system: TRAF3; test: Western blot for TRAF3 protein level; format: cell-based; conditions: DLD-1 cells; BS-1 100 ng/ml or TNFα 20 ng/ml
Experimental: as §1
as §2, with “Orthovanadate]. Lysates were centrifuged at 14000 RPM for 30 minutes at 4° C., and supernatants were pre-cleared with normal goat IgG-agarose beads (Sigma, St. Louis, Mo.) by incubating on a rotator at 4° C.” for “Orthovanadate].”, “detector. […]” for “detector.”

For TNFα, the “activation of NFκB1” value [1] was “identical in both cell-lines” and the “TRAF3 level after stimulation” value [2] was “increases the levels of TRAF3”.
